Assay results reported in patent US12053480B2, “Methods and pharmaceutical compositions for treating peripheral demyelinating diseases” (INSERM (INSTITUT NATIONAL DE LA SANTE ET DE LA RECHERCHE …, priority 2015, dated 2024).
Where two headings read alike, the source gives them in different places.

Assays:
diabetic (db/db) mice = test: Sciatic nerve myelin morphometry (toluidine blue, TEM) in diabetic mice; assay type: in vivo, mouse; conditions: diabetic mice treated daily for one month
Method: (§1) Sciatic nerves of 20 and 28 weeks old diabetic mice or 16 and 24 weeks old CMT1A rats treated with TRO19622 drug or PBS were fixed for 20 min in situ with 4% PFA and 2.5% glutaraldehyde, in 0.1 M phosphate buffer (pH7.3). Then nerves were removed and postfixed overnight in the same buffer.
After washing 30 min in 0.2M PBS phosphate buffer, the nerves were incubated with 2% osmic acid in 0.1M phosphate buffer for 90 minutes at room temperature. Then, samples were washed in 0.2M PBS phosphate buffer, dehydrated using ethanol gradient solutions and embedded in epoxy resin. For electron microscopy of sciatic nerves, ultrathin (70 nm) cross-sections were cut and stained with 1% uranylacetate solution and lead-citrate and analyzed using a HITACHI H7100 electron microscope at the ‘Centre des Resources en Imagerie Cellulaire’ (CRIC) (for further details see Cotter et al., 2010^9). […] G-ratio was determined using GRatioCalculator plugin of Image J. At less 200 fibers per animal were analysed.
To go further 16-weeks-old diabetic and control mice were treated daily with vehicle or TRO19622 for one month. One day and two months after drug treatment, myelin was evaluated in the sciatic nerve using toluidine blue staining and transmission electron microscopy (TEM) to measure the g-ratio (axon diameter on total myelinated fiber diameter).

CMT1A rats = test: Sciatic nerve morphometry (toluidine blue, electron microscopy) in CMT1A rats; assay type: in vivo, rat
Method: as §1
After washing 30 min in 0.2M PBS phosphate buffer, the nerves were incubated with 2% osmic acid in 0.1M phosphate buffer for 90 minutes at room temperature. Then, samples were washed in 0.2M PBS phosphate buffer, dehydrated using ethanol gradient solutions and embedded in epoxy resin. For electron microscopy of sciatic nerves, ultrathin (70 nm) cross-sections were cut and stained with 1% uranylacetate solution and lead-citrate and analyzed using a HITACHI H7100 electron microscope at the ‘Centre des Resources en Imagerie Cellulaire’ (CRIC) (for further details see Cotter et al., 2010^9). Semi-thin cross-sections (0.7 μm) were cut using a microtome (Leica, RM 2155) with a diamond knife (Histo HI 4317, Diatome). Sections were stained with blue of toluidine and observed using light microscope. G-ratio was determined using GRatioCalculator plugin of Image J. At less 200 fibers per animal were analysed.
While demyelinating diabetes peripheral neuropathy is a commonly acquired disease, demyelination is also the characteristic feature of a large number of inherited diseases called Charcot-Marie-Tooth diseases (CMT). We therefore sought to test whether the inhibition of VDAC1 function could prevent demyelination in these diseases. We choose CMT1A rat strain^42 as this is arguably the most representative animal model of Charcot-Marie-Tooth disease, mimicking CMT1A the most prevalent CMT in humans^10. Twelve weeks old CMT1A rats were daily treated with TRO19622 for 15 or 30 days and one day or two months after treatment, we analyzed MAPK demyelination pathways by western blot. […] However, these effects disappeared two months after treatment. Then we analyzed phospho-c-jun activation in mSC using immunohistochemistry. […] Next, we measured Schwann cell demyelination and g-ratio by toluidine blue staining on semi-thin sciatic nerve sections and on thin sections using electron microscopy.

Q: What does the source list for `CC(C)CCC[C@@H](C)[C@H]1CC[C@H]2[C@@H]3CCC4=C/C(=N\O)CC[C@]4(C)[C@H]3CC[C@]12C` [TRO19622, (NZ)—N-[(8S,9S,10R,13R,14S,17R)-10,13-dimethyl-17-[(2R)-6-methylheptan-2-yl]-1,2,6,7,8,9,11,12,14,15,16,17-dodecahydrocyclopenta[a]phenanthren-3-ylidene]hydroxylamine]?
A: axon number and diameter (diabetic (db/db) mice): No differences; g-ratio (diabetic (db/db) mice; compared to vehicle): significant decrease; g-ratio of myelinated fibers (CMT1A rats): significant increase; number and diameter of axons in the nerve (CMT1A rats): increased; number of demyelinated fibers (CMT1A rats): reduction; g-ratio of myelinated fibers (CMT1A rats; listed as TRO16922): restored a correct g-ratio; number and diameter of axons in the nerve (CMT1A rats; listed as TRO16922): rescued axonal loss
